Data as given in patent US4977179A, “Proline derivatives” (Otsuka Pharmaceutical Factory, Inc., priority 1986, dated 1990).

Target: T1, angiotensin-converting enzyme (ACE) (Rattus norvegicus, UniProt P47820)
T1 construct: enzyme solution prepared from rat lung; from tissue; host or cells: rat lung
T1 sequence (P47820 36-1313): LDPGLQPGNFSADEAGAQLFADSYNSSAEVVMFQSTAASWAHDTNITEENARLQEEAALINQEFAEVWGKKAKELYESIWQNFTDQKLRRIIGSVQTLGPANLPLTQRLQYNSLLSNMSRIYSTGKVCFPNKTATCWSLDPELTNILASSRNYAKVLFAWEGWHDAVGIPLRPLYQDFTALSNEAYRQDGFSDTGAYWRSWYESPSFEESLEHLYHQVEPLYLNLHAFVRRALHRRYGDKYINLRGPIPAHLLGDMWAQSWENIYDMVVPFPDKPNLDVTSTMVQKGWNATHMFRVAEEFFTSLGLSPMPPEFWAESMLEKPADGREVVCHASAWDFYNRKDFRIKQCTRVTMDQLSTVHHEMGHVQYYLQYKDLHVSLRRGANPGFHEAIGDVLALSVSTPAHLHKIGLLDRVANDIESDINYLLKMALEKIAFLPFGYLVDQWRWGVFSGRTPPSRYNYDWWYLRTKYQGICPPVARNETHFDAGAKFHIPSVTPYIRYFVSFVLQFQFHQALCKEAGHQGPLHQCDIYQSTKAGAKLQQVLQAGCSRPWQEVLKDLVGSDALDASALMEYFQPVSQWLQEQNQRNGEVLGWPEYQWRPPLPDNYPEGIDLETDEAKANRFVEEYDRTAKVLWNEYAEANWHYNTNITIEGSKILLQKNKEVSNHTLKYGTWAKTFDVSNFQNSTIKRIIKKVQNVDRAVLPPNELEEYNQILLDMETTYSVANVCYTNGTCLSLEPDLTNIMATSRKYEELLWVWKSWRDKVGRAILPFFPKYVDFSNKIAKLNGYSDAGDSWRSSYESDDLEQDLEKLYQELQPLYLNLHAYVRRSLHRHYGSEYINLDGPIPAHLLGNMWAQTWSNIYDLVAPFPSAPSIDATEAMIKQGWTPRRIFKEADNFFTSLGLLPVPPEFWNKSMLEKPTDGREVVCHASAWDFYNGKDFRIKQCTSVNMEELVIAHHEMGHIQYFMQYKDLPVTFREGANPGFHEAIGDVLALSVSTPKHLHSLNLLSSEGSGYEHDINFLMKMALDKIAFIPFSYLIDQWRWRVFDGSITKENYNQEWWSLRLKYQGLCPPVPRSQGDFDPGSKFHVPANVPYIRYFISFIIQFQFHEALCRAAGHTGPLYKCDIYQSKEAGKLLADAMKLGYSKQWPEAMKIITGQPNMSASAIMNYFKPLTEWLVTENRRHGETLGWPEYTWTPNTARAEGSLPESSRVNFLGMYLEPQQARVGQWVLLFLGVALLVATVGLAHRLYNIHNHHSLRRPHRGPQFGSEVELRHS
Assay: Inhibitory activity against angiotensin-converting enzyme (ACE)
Type: biochemical
Conditions: enzyme solution from rat lung; substrate hippuryl-histidyl-leucine; phosphate buffer pH 8.3, 37° C., HPLC of hippuric acid; samples all used in the form of dicarboxylic acid
Method: Inhibitory activity against angiotensin-converting enzyme (ACE)
A […] of the compound of the present invention was dissolved in 50 ml of a phosphate buffer (pH 8.3). The solution was diluted with the same phosphate buffer as above to prepare a sample solution.
A 100 μl quantity of an enzyme solution prepared from rat lung was mixed with 100 μl of the sample solution. The mixture was gently shaken at 37° C. for 10 minutes. To the mixture was added 100 μl of a solution containing 6.99 mM of hippuryl-histidyl-leucine (product of Peptide Institute, Inc., Japan) as a substrate. The resulting mixture was incubated at 37° C. for 10 minutes. The reaction was terminated by addition of 100 μl of a 10% metaphosphoric acid to the reaction mixture and the mixture was neutralized with 1N-sodium hydroxide. A 10 μl quantity of the resulting mixture was subjected to high performance liquid chromatography (HPLC) for analysis. The area valve (S) of the hippuric acid formed by the reaction was measured. A control area valve (R) was measured by repeating the same procedure as above except that 100 μl of phosphate buffer (pH 8.3) was used in place of the sample solution.
A percent inhibition was calculated by the following equation: [formula] […]

IC50: 114 pM
Compound: CCCCOCCSC[C@H](NC(C)C(=O)N1CCC[C@H]1C(=O)O)C(=O)O (single isomer, unassigned) [Example 22]
